# Test results taken from PMC7083880 (Nature Communications, 2020).
# Several values for one entry are separate records, joined by “and”; a condition that tells them apart may be missing. Equal values may be shown once.
# Experiments:
# [1] = system: firefly luciferase (Fluc) gene with UAG nonsense codon at position 109 in HeLa cells; assay: Firefly luciferase readthrough assay, UAG PTC construct; assay type: cell-based, human; conditions: G418 1mg/ml
# [2] = target: T1, CTU1 (Homo sapiens, UniProt Q7Z7A3); assay: UGA readthrough luciferase assay with CTU1 overexpression; assay type: cell-based;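 as to luciferase activity, average: DAP exposure for 24 h before luciferase measurement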;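 as to luciferase activity, exp2: DAP exposure for 24 h before luciferase measurement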
# T1 construct: host or cells: HeLa
# T1 sequence (Q7Z7A3 1-348): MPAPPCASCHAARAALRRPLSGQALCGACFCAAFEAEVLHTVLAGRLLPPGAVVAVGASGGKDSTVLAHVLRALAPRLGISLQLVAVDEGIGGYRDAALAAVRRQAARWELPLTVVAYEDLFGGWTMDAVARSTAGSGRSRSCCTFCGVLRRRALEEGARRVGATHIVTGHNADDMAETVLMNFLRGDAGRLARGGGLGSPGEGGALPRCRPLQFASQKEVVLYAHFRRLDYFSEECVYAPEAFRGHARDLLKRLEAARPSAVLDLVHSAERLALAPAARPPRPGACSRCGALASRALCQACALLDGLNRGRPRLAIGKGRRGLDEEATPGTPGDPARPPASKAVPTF
# Excerpt: Firefly luciferase from HEK293FT cells transfected with the Fluc-int-UGA construct was immunoprecipitated and digested with trypsin. The MS/MS spectrum of the peptide containing the PTC position and the sequence determination are shown. The upper red and blue sequences indicate the amino acids validated, respectively, by detection of Nter and Cter peptide fragments (b and y ion series). Peptide fragments y6 and y7 clearly identify tryptophan (W) at the PTC position. The black peaks correspond to non-attributed mass-to-charge ratio (m/z) values. […] Readthrough efficiency was determined by measuring luciferase activity in HeLa cells co-transfected with the firefly luciferase construct described in Fig. 1b and with increasing amounts of an expression vector for either FTSJ1 or CTU1 (0.5, 1, or 2 µg). The empty expression vector (E.v.) was used as control. […] The experiment was performed twice and the results of both experiments (Exp1 and Exp2) are shown. c Western blot analysis of FTSJ1 and CTU1. d 2′-O-methylation analysis of tRNA^Trp, tRNA^SER, and tRNA^GLN by RiboMethSeq. […] A molecular weight marker is indicated to the left of each gel. p-values (p) were calculated using Student’s t-test. Source data are provided as a Source Data file.
# Among the enzymes modifying tRNAs liable to recognize a stop codon by extended wobbling, human FTSJ1 (TRM7 in yeast) exclusively modifies tRNAs involved in UGA readthrough. In addition to other tRNA targets, FTSJ1 methylates the cytosine at position 34 of tRNA^Trp. Inhibition of this modification could increase the capacity of tRNA^Trp to misdecode and recognize the UGA stop codon. […] FTSJ1 and CTU1 overexpression were assessed by western-blot analysis (Fig. 5c).
structure (smiles),measurement,setting,value
"CN[C@@H]1[C@@H](O)[C@@H](O[C@@H]2[C@@H](O)[C@H](O[C@H]3O[C@H]([C@@H](C)O)[C@@H](O)[C@H](O)[C@H]3N)[C@@H](N)C[C@H]2N)OC[C@]1(C)O [G418, reference compound]","Luciferase activity, UAG PTC",[1]; average of 2 experiments,2275.5±805 and 2275.5
same,"Luciferase activity, UAG PTC",[1]; experiment 1,2845
same,"Luciferase activity, UAG PTC",[1]; experiment 2,1706
same,"luciferase activity, average","[2]; 0.5µg CTU1, 25µM",3303.88
same,"luciferase activity, exp1","[2]; 0.5µg CTU1, 25µM",2866.5
same,"luciferase activity, exp1*1,5","[2]; 0.5µg CTU1, 25µM",4299.75
same,"luciferase activity, exp2","[2]; 0.5µg CTU1, 25µM",2308
same,"luciferase activity, average","[2]; 0.5µg CTU1, 600µM",6542.12
same,"luciferase activity, exp1","[2]; 0.5µg CTU1, 600µM",5872.5
same,"luciferase activity, exp1*1,5","[2]; 0.5µg CTU1, 600µM",8808.75
same,"luciferase activity, exp2","[2]; 0.5µg CTU1, 600µM",4275.5
same,"luciferase activity, average","[2]; 1µg CTU1, 25µM",3585
same,"luciferase activity, exp1","[2]; 1µg CTU1, 25µM",3346
same,"luciferase activity, exp1*1,5","[2]; 1µg CTU1, 25µM",5019
same,"luciferase activity, exp2","[2]; 1µg CTU1, 25µM",2151
same,"luciferase activity, average","[2]; 1µg CTU1, 600µM",5848.5
same,"luciferase activity, exp1","[2]; 1µg CTU1, 600µM",6204
same,"luciferase activity, exp1*1,5","[2]; 1µg CTU1, 600µM",9306
same,"luciferase activity, exp2","[2]; 1µg CTU1, 600µM",2391
same,"luciferase activity, average","[2]; 2µg CTU1, 25µM",2193.38
same,"luciferase activity, exp1","[2]; 2µg CTU1, 25µM",1845.5
same,"luciferase activity, exp1*1,5","[2]; 2µg CTU1, 25µM",2768.25
same,"luciferase activity, exp2","[2]; 2µg CTU1, 25µM",1618.5
same,"luciferase activity, average","[2]; 2µg CTU1, 600µM",2999.5
same,"luciferase activity, exp1","[2]; 2µg CTU1, 600µM",2670
same,"luciferase activity, exp1*1,5","[2]; 2µg CTU1, 600µM",4005
same,"luciferase activity, exp2","[2]; 2µg CTU1, 600µM",1994
